We go through 2 compounds from patent publication EP0601187A1, “NOVEL ANTIBIOTIC AND PRODUCTION AND USE THEREOF” (HIGETA SHOYU CO., LTD., priority 1992, dated 1993).

The subject of data set [1] is Candida albicans IFM4009, Aspergillus fumigatus Tsukuba No. 12, Cryptococcus neoformans 145A. Description: Effectiveness in systemically fungi-infected mice. It counts as in vivo. To be noted: mice intravenously inoculated with clinically isolated strains. From the text: As one example of the test of testing the effectiveness of the active substances, HUT57A or HUT57B may be administered to systemically fungi-infected mice, to which various clinically isolated strains (Candida albicans IFM4009, Aspergillus fumigatus Tsukuba No. 12, Cryptococcus neoformans 145A) were intravenously inoculated, whereby the effectiveness of administered the substance may be examined.

For data set [2], the system named is Trichosporon cutaneum IFO1500. To be noted: pH 6.8.
Data set [3] has as its system Aspergillus flavas IAM2044. To be noted: pH 6.8.
Data set [4] relates to Diaporothe citiri IFO9170. As to conditions: pH 6.8.
Data set [5] concerns Trichophyton mentagrophytes IFO6124. As to conditions: pH 6.8.
Data set [6] is described as follows: Hemolyzation Activity.
Data set [7] deals with Trichophyton rubrum IFO9185. To be noted: pH 6.8.
Data set [8] concerns Botrytis cinerea IFO31831. As to conditions: pH 6.8.
Data set [9] concerns Aspergillus fumigatus IAM2612. To be noted: IAM2612, pH 6.8.
In data set [10] the test system is Fusarium oxysporum HUT5015. To be noted: pH 6.8.
Data set [11] has as its system Cryptococcus neoformans IFO1320. To be noted: IFO1320, pH 6.8.
Data set [12] relates to Mucor guilliermondii IFO9403. To be noted: pH 6.8.
The test system of data set [13] is ddy-N mice. Description: Acute toxicity test, single intravenous injection. Type of data set: in vivo. The protocol:
In the next test, mice of the same kind as mentioned above were used. Each of HUT57A and HUT57B was dissolved in DMSO (dimethylsulfoxide)-castor oil-5 % Glc solution, and the resulting solution was injected to the caudal vein of each of the five male mice once or plural times. For the single injection, the solution was administered to the mice each in an amount of 200 mg per kg of the body weight; and for the plural injections, it was administered to them 14 times each in an amount of 30 mg/kg/day.

The subject of data set [14] is Candida albicans DUC1001. Nature of the data set: Antifungal activity in vitro by counting the number of the living cells. It counts as cell-based. As to conditions: just after addition at 25, 40 and 80 µg/ml.
The test system of data set [15] is Candida tropicalis IFO3256. To be noted: IFO3256, pH 6.8.
Data set [16] deals with Fusarium solani ATCC11712. To be noted: ATCC11712, pH 6.8.

Values after ≈ are worked out from the molar mass of the structure shown. Numbered stars: 1 amine (or outer) side, 2 acyl side, 3 side chain; on linkers, the order of the positions; unused ones are H or OH. Square brackets hold non-standard residues; d marks the D form. Peptide text beside a SMILES is read from it. Gly(Dodecyl) = CCCCCCCCCCCC[C@H](N)C(=O)O; X1 = CCCCCCCCCCCCC[C@H](N[*:1])C(=O)[*:2] Bounds are passed on as bounds.

With `CCCCCCCCCCCCC[C@@H]1NC(=O)[C@H](CCC(N)=O)NC(=O)[C@H](CC(N)=O)NC(=O)[C@H](Cc2ccc(O)cc2)NC(=O)[C@H](CC(N)=O)NC(=O)[C@@H]2CCCN2C(=O)[C@H](CO)NC(=O)[C@H](CC(N)=O)NC1=O` [HUT57B, X-Asn-Ser-Pro-Asn-Tyr-Asn-Gln] (cyclo([X1]NSPNYNQ)), the “effectiveness to systemic mycosis in mice” value in data set [1] is reported as “effective”. For the same compound, the MIC (commonly the lowest concentration found to suppress growth) in data set [2] worked out at 23.0 µg/mL (≈ 21.8 µM); in data set [3], 2.4 µg/mL (≈ 2.27 µM); in data set [4], 1.0 µg/mL (≈ 0.946 µM); in data set [5], 10.0 µg/mL (≈ 9.46 µM); in data set [7] it was 5.4 µg/mL (≈ 5.11 µM); in data set [8], 2.1 µg/mL (≈ 1.99 µM). In addition, the minimal inhibitory concentration (MIC) in data set [9] worked out at 1.3 µg/mL (≈ 1.23 µM); in [10] it was 1.2 µg/mL (≈ 1.14 µM); in [11], 5.2 µg/mL (≈ 4.92 µM); in data set [12], 1.2 µg/mL (≈ 1.14 µM); in data set [15] it was 11.2 µg/mL (≈ 10.6 µM); in data set [16] it was 2.8 µg/mL (≈ 2.65 µM). The “Hemolyzation Activity” value in [6] is given as “-”. In addition, in data set [13], the “LD₅₀ by single intravenous injection” value is at least 200 mg/kg. Moreover, the “number of the living cells” value in data set [14] is reported as “noticeably decreased”.

Turning to `CCCCCCCCCCCC[C@@H]1NC(=O)[C@H](CCC(N)=O)NC(=O)[C@H](CC(N)=O)NC(=O)[C@H](Cc2ccc(O)cc2)NC(=O)[C@H](CC(N)=O)NC(=O)[C@@H]2CCCN2C(=O)[C@H](CO)NC(=O)[C@H](CC(N)=O)NC1=O` [HUT57A, X-Asn-Ser-Pro-Asn-Tyr-Asn-Gln] (cyclo([Gly(Dodecyl)]NSPNYNQ)), in [1], the “effectiveness to systemic mycosis in mice” value is “effective”. In addition, the MIC turned out to be 23.0 µg/mL (≈ 22 µM) in [2]; 2.3 µg/mL (≈ 2.2 µM) in [3]; 1.0 µg/mL (≈ 0.959 µM) in data set [4]; 10.0 µg/mL (≈ 9.59 µM) in data set [5]; 6.2 µg/mL (≈ 5.94 µM) in data set [7]; 2.2 µg/mL (≈ 2.11 µM) in data set [8]. Also, the minimum inhibitory concentration (MIC) in [9] turned out to be 1.3 µg/mL (≈ 1.25 µM); in [10] it was 1.2 µg/mL (≈ 1.15 µM); in data set [11] it was 6.0 µg/mL (≈ 5.75 µM); in data set [12] it was 1.2 µg/mL (≈ 1.15 µM); in data set [15], 11.4 µg/mL (≈ 10.9 µM); in [16] it was 2.8 µg/mL (≈ 2.68 µM). The “Hemolyzation Activity” value in data set [6] is on record as “-”. Further, in data set [13], the “LD₅₀ by single intravenous injection” value is at least 200 mg/kg. Further, the “number of the living cells” value in data set [14] was “noticeably decreased”.
